Reference: article PMC9448861 (Frontiers in Pharmacology, 2022)

Key:
Format in all cases: in vivo, C57BL/6J mice
[1] = Pharmacokinetics of ketamine and its metabolite hydroxynorketamine in mouse serum, hippocampus and frontal cortex (noncompartmental analysis, LC-MS/MS); settings: for AUC0-∞ / Cmax / MRT / t0.5λz / tmax / λz: ketamine 10 mg/kg i.p.
[2] = test system: mice subjected to CRS and CRS + ZnD; experiment: Sucrose preference test (SPT) in mice subjected to CRS or CRS + ZnD
Description: (§1) All the compounds/drugs used in the study were obtained commercially, except for hyperforin (sodium salt), which was received as a gift from Dr. Wilmar Schwabe GmbH and Co (Karlsruhe, Germany). […] The control group received only 0.9% NaCl.
(§2) One week after acclimation, the mice were subjected to either a zinc-adequate feed (ZnA, 50 mg/kg) or zinc-deficient/low-Zn feed (ZnD, 3 mg/kg). Beginning from the second week, some ZnD mice were additionally subjected to 3 weeks of CRS. At the beginning of the 5th week, the mice were subjected to their appropriate treatment schedules or behavioral tests (see schemes in the figures).
(§3) CRS was performed in accordance with the procedures of [Ding et al. (2016]) with modifications. Mice from the stress groups were restrained in well-ventilated tubes with caps and holes for breathing (in a separate room from the control groups) for 3 h/day over 3 weeks. After each restraint period, the mice were transferred to housing cages. The control mice were housed at 6 mice per cage in an enriched environment and were handled every third day.
Seven days before the tests, the control and stressed mice were singly housed. The tests were carried out as follows. Two bottles (water and 1% sucrose solution) were placed in each cage 63 h before the test. Twenty-four hours later, the bottles were switched from right to left. Fifteen hours before the tests, the animals were deprived of food, water, and sucrose. The tests lasted 2 h, and sucrose preference was calculated as a percentage of the volume of sucrose intake over the total volume of fluid intake (water and sucrose solution). The SPT was performed during the light phase.

[3] = test system: Zn levels in the Hp and FC; experiment: Analysis of zinc (F-AAS) in the Hp and FC; settings: CRS + ZnD mice; three doses
Description: as §1
The samples were mineralized before the experiments. Briefly, three independent test portions of 0.5 g each were weighed from each sample and transferred to Teflon vessels. Then, 2 mL of 30% H2O2 and 6 mL of 65% HNO3 (V) were added, and the mixture was subjected to wet mineralization in a closed system in a Magnum II mineralizer (ERTEC). Mineralization was carried out for 75 min with three cycles of magnetron operation, where the first 30 min was at 60% power, next 15 min was at 80% power, and the remaining 30 min was at 100% power. The mineralized solution thus obtained was heated on a hot plate at 120 °C for 60 min to remove the excess reagents. The samples were then quantitatively transferred to 10 mL flasks and used to determine the zinc content via the F–AAS method (adsorption and emission technique). An atomic absorption spectrometer (iCE 3500, Thermo Scientific, UK) was used to measure the Zn content; each sample was analyzed independently thrice, and the obtained results are presented as mean value ± standard error of mean (SEM).

[4] = test system: mice subjected to CRS and CRS + ZnD; experiment: Tail suspension test (TST) in mice subjected to CRS or CRS + ZnD; settings: three doses, 72 h after the last treatment
Description: as §1, §2, §3
The TST was performed as described in a previous work ([Pochwat et al., 2018]). Briefly, each mouse was suspended individually by the tail using adhesive tape (2 cm from the tail tip) affixed to a solid flat surface, and immobility times were measured for 6 min. […]

For `N[C@@]1(c2ccccc2Cl)CCC[C@@H](O)C1=O` [Hydroxynorketamine, (2R,6R;2S,6S)-hydroxynorketamine], the “AUC0-∞” value ([1]; frontal cortex, CRS + ZnD mice) was 148.57 µg·min/g, the Cmax ([1]; frontal cortex, CRS + ZnD mice) was 1838.33 ng/g and the MRT ([1]; frontal cortex, CRS + ZnD mice) was 1.137 h. The t0.5λz ([1]; frontal cortex, CRS + ZnD mice) was 52.49 min, the tmax ([1]; frontal cortex, CRS + ZnD mice) was 0.167 h and the λz ([1]; frontal cortex, CRS + ZnD mice) was 0.013 min⁻¹. The “AUC0-∞” value ([1]; frontal cortex, CRS mice) was 154.18 µg·min/g, the Cmax ([1]; frontal cortex, CRS mice) was 2020.00 ng/g and the MRT ([1]; frontal cortex, CRS mice) was 1.212 h. For the same compound, the t0.5λz ([1]; frontal cortex, CRS mice) was 59.38 min, the tmax ([1]; frontal cortex, CRS mice) was 0.167 h and the λz ([1]; frontal cortex, CRS mice) was 0.012 min⁻¹. The “AUC0-∞” value ([1]; frontal cortex, Control mice) was 171.66 µg·min/g, the Cmax ([1]; frontal cortex, Control mice) was 1920.83 ng/g and the MRT ([1]; frontal cortex, Control mice) was 1.245 h. The t0.5λz ([1]; frontal cortex, Control mice) was 50.01 min, the tmax ([1]; frontal cortex, Control mice) was 0.167 h and the λz ([1]; frontal cortex, Control mice) was 0.014 min⁻¹. The “AUC0-∞” value ([1]; hippocampus, CRS + ZnD mice) was 114.29 µg·min/g, the Cmax ([1]; hippocampus, CRS + ZnD mice) was 1540.00 ng/g and the MRT ([1]; hippocampus, CRS + ZnD mice) was 1.172 h. It also gave a t0.5λz ([1]; hippocampus, CRS + ZnD mice) of 54.06 min, a tmax ([1]; hippocampus, CRS + ZnD mice) of 0.167 h and a λz ([1]; hippocampus, CRS + ZnD mice) of 0.013 min⁻¹. The “AUC0-∞” value ([1]; hippocampus, CRS mice) was 121.64 µg·min/g, the Cmax ([1]; hippocampus, CRS mice) was 1536.83 ng/g and the MRT ([1]; hippocampus, CRS mice) was 1.213 h. The t0.5λz ([1]; hippocampus, CRS mice) was 54.52 min, the tmax ([1]; hippocampus, CRS mice) was 0.167 h and the λz ([1]; hippocampus, CRS mice) was 0.013 min⁻¹. The “AUC0-∞” value ([1]; hippocampus, Control mice) was 137.36 µg·min/g, the Cmax ([1]; hippocampus, Control mice) was 1591.33 ng/g and the MRT ([1]; hippocampus, Control mice) was 1.349 h. It also gave a t0.5λz ([1]; hippocampus, Control mice) of 58.88 min, a tmax ([1]; hippocampus, Control mice) of 0.167 h and a λz ([1]; hippocampus, Control mice) of 0.012 min⁻¹. The “tissue-to-serum ratios for the metabolite as share of the values observed for the parent compound” value ([1]; in the FC) was “about 80%”, the “tissue-to-serum ratios for the metabolite as share of the values observed for the parent compound” value ([1]; in the serum and Hp) was “about 40%” and the Cmax ([1]; serum, CRS + ZnD mice) was 1726.00 ng/mL. It also gave an MRT ([1]; serum, CRS + ZnD mice) of 1.22 h, a t0.5λz ([1]; serum, CRS + ZnD mice) of 56.28 min and a tmax ([1]; serum, CRS + ZnD mice) of 0.167 h. It also gave a λz ([1]; serum, CRS + ZnD mice) of 0.013 min⁻¹, a Cmax ([1]; serum, CRS mice) of 1269.00 ng/mL and an MRT ([1]; serum, CRS mice) of 1.351 h. For the same compound, the t0.5λz ([1]; serum, CRS mice) was 59.11 min, the tmax ([1]; serum, CRS mice) was 0.167 h and the λz ([1]; serum, CRS mice) was 0.012 min⁻¹. It also gave a Cmax ([1]; serum, Control mice) of 1152.71 ng/mL, an MRT ([1]; serum, Control mice) of 1.462 h and a t0.5λz ([1]; serum, Control mice) of 62.33 min. For the same compound, the tmax ([1]; serum, Control mice) was 1 h, the λz ([1]; serum, Control mice) was 0.011 min⁻¹ and the “metabolite-to-parent Cmax ratio” value ([1]; serum, control and study groups) was ~1.
In the case of `CN(C)CCCN1c2ccccc2CCc2ccccc21` [IMI, imipramine], the “sucrose preference in the SPT” value ([2]; CRS + ZnD mice, 10 mg/kg chronically (14 days), SPT 24 h after the last treatment) is reported as “the same was not observed” and the “sucrose preference in the SPT” value ([2]; CRS mice, 10 mg/kg chronically (14 days), SPT 24 h after the last treatment) is reported as “restored sucrose preference”.
In the case of `C[C@@H](CN1CCC(Cc2ccccc2)CC1)[C@@H](O)c1ccc(O)cc1` [Ro, Ro 25–6981], the “sucrose preference in the SPT” value ([2]; CRS + ZnD mice, three doses (ketamine 10 mg/kg, Ro 10 mg/kg, Hyp 2.5 mg/kg + Lan 10 mg/kg), 24 h after the last treatment) is reported as “failed to restore sucrose preference”, the “sucrose preference in the SPT” value ([2]; CRS mice, three doses (ketamine 10 mg/kg, Ro 10 mg/kg, Hyp 2.5 mg/kg + Lan 10 mg/kg), 24 h after the last treatment) is reported as “did not show any statistically significant antidepressant-like activities” and the “Zn levels in the Hp and FC” value [3] is reported as “reduced the Zn levels”. The “immobility time in the TST” value [4] was “ineffective”.
